No end group written: not given here.
Key:
[1] = test system: adhesion of ciliary neurons to pET-RK36 s-laminin fragment; details: for Inhibition of neuronal adhesion to pET-RK36 / s-laminin (in words): concentration not given
[2] = test system: ciliary ganglion neurons; assay: Cell attachment assay on immobilized substrata, ciliary ganglion neurons; assay type: cell-based, chick
Description: (§1) Substrates were immobilized to tissue culture dishes as described by Lagenaur and Lemmon, Proc. Natl. Acad. Sci. USA 84, 7753-7757 (1987). Briefly, nitrocellulose (BA85; Schleicher and Schuell, Keene, N.H.) was dissolved in methanol (1 cm^2 /ml), applied to tissue culture wells (90 µl per 16 mm diameter well) and allowed to dry. Drops (1.5-3 μl) of substrates in solution were applied and allowed to bind for 20 min. after which the drops were aspirated. Nonspecific binding sites on the nitrocellulose were then blocked by incubating wells with the following series of solutions: 10 mg/ml bovine serum albumin (BSA; Sigma) in PBS for ~1 min; 30 mg/ml BSA in PBS for 2-3 hr; Earles' Minimum Essential Medium (MEM) containing 2% fetal bovine serum and 25 mM HEPES, pH 7.4, for 5 min; PBS, twice briefly; and Earles' MEM containing 1 mg/ml BSA and 25 mM HEPES, pH 7.4, for 30 min at 37° C. in a humidified chamber containing 7% CO2. At this point, neurons were added, with or without synthetic peptides, and incubated for 2 hr at 37° C. Finally, the wells were washed twice with PBS pre-warmed to 37° and adherent cells were fixed in place with 2% paraformaldehyde and 2% glutaraldehyde in PBS.
Neurons were dissociated from chick ciliary ganglia as previously described by Nishi and Berg, Proc. Natl. Acad. Sci. USA 74, 5171-5175 (1977);
Covault et al., J. Cell Biol. 105, 2479-2488 (1987). Each well received ~5000 neurons, which corresponds to ~1 E8 ganglia, ~1.5 E10 ganglia, and ~2 E13 ganglia (E8, E10 and E13 are stages of development of the embryonic chick) [neuronal death is occurring over this time course; Landmessen and Pilar, J. Physiol. 241, 715-736 (1974)]. Chick dorsal root ganglia and optic tecta were dissociated in the same manner; each well received cells from 4-5 dorsal root ganglia or 0.25 optic tecta. For B35 and B104 cell lines, each well received 20,000 cells. For PC12 cells, each well received 5000 cells. In some tests, PC12 cells were grown with 50 ng/ml nerve growth factor (NGF) for 3-6 days before use. All cells were suspended in Earles' MEM containing 1 mg/ml BSA and 25 mM HEPES, pH 7.4, for addition to tissue culture wells.
Cell attachment assays were performed as described hereinbefore.

[3] = test system: neurons and neuron-like cells; assay: Cell attachment assay, each cell type of Table 1; assay type: cell-based; details: for each cell type, Table 1 footnote
Description: as §1
Covault et al., J. Cell Biol. 105, 2479-2488 (1987). […]

[4] = test system: dorsal root ganglion neurons; assay: Cell attachment assay on immobilized substrata, dorsal root ganglion neurons; assay type: cell-based, chick; details: sensory neurons (cell type implied by context)
Description: as §1, with “Finally, the wells were washed twice with PBS pre-warmed to 37° and adherent cells were fixed in place with 2% paraformaldehyde and 2% glutaraldehyde in PBS.” left out
(§2) Ciliary neurons were selected for initial tests because many of these neurons normally form neuromuscular junctions on striated muscle fibers in vivo [Pilar et al., J. Neurophys. […] To extend these tests, it was determined whether neurons of other types also adhered to the s-laminin fragments. […]

[5] = test system: tectal neurons; assay: Cell attachment assay on immobilized substrata, tectal neurons; assay type: cell-based, chick; details: 2 hr
Description: as §1, with “Finally, the wells were washed twice with PBS pre-warmed to 37° and adherent cells were fixed in place with 2% paraformaldehyde and 2% glutaraldehyde in PBS.” left out
as §2

Question: For AEKQLREQVGDQYQTVRALAE [Peptide M5], which IC50 [1] is on record?
Answer: The IC50 was 10 to 20 µM.

Question: poly-lysine was tested. Which “More neurons adhered to poly-lysine than to either laminin or s-laminin” value ([2]; ciliary neurons, each stage E8-E13) did it give?
Answer: Its value is 30-50%.

Question: How did the “Inhibition of neuronal adhesion to pET-RK36 / s-laminin (in words)” value [1] turn out when LREQVG [Peptide M513] was run?
Answer: The value was “inhibitory”.

Question: laminin was tested. Which “Cells applied that adhered to laminin” value [3] did it give?
Answer: The value was 20.

Question: What about the “Fold more cells adhered to laminin than to s-laminin” value [4] of the same substance?
Answer: Its value is “at least 10 fold”.

Question: What about the “Applied ciliary neurons adhered” value ([2]; 2 hour assay, optimal concentration of substrate on nitrocellulose) of the same substance?
Answer: The value was 30-40%.

Question: And the “Adhesion of ciliary neurons to substrate (FIG. 3)” value ([2]; 2 hr, laminin 100 μg/ml, pET-RK36 10 μg/ml)?
Answer: Its value is “adhere well”.

Question: What about the “Optimal concentration in molar terms” value ([2]; Mr ~900,000 laminin, ~20,000 s-laminin fragment) of the same substance?
Answer: The value was ~ 0.5 μM.

Question: What about the “Concentration of applied solution giving maximal adhesion” value ([2]; ciliary neurons) of the same substance?
Answer: The value was ~ 500 μg/ml.

Question: What about the “Lowest concentration in solution with significant adhesion” value ([2]; ciliary neurons) of the same substance?
Answer: The value was 20 µg/mL.

Question: What about the “Adhesion of tectal cells to substrate (FIG. 3)” value [5] of the same substance?
Answer: Its value is “adhere well”.

Question: With AEKQLREQVGD [Peptide M51] as the substance, how does the IC50 [1] read?
Answer: The IC50 was 10 to 20 µM.

Question: What about the “IC50 for inhibition of neuronal adhesion to pET-RK36” value [1] of the same substance?
Answer: The value was ~ 20 μg/ml.

Question: Which “Attachment of ciliary neurons to recombinant proteins / bacterial extracts (FIG. 2)” value ([2]; control for vector-encoded sequences) does the source give for β-galactosidase: pure β-galactosidase here?
Answer: The value was “no significant attachment”.

Question: KQLREQ [Peptide M512] was tested. Which “Inhibition of neuronal adhesion to pET-RK36 / s-laminin (in words)” value [1] did it give?
Answer: Its value is “inhibitory”.

Question: Which “Inhibition of neuronal adhesion to pET-RK36 / s-laminin (in words)” value [1] does the source give for AEKQLR [Peptide M511] here?
Answer: The value was “inhibiting activity is not shown”.

— patent publication US5003044A, “Peptide inhibitors of motor neuron attachment to s-laminin” (Washington University, priority 1989, dated 1991)
